{"source": "ChEMBL document CHEMBL4419174", "about": "“Small molecule inhibitors of apobec3g and apobec3b” (2015)", "key": {"[1]": {"biological_target": "DNA dC->dU-editing enzyme APOBEC-3G (Homo sapiens, UniProt Q9HC16, C321A)", "sequence (Q9HC16 whole entry C321A)": "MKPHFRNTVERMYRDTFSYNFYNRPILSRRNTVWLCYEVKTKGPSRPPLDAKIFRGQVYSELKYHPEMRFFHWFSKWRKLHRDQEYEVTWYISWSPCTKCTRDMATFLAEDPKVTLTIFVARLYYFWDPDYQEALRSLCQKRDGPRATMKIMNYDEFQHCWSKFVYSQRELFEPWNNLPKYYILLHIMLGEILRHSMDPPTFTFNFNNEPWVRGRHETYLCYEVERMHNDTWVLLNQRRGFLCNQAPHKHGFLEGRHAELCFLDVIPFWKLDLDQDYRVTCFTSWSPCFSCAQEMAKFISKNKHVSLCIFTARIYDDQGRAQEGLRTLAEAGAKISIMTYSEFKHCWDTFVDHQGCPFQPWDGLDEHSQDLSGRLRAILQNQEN", "test": "Inhibition of recombinant APOBEC3G C321A mutant (unknown origin) expressed in HEK293 cells assessed as reduction in cytosine deaminase activity using 5'-6-FAM and 3'-TAMRA quench molecule tagged cytosine-containing single-stranded DNA substrate incubated for 2 hrs by fluorescence-based assay", "assay_type": "cell-based"}, "[2]": {"biological_target": "T1, DNA dC->dU-editing enzyme APOBEC-3A (Homo sapiens, UniProt P31941)", "T1 sequence (P31941 whole entry)": "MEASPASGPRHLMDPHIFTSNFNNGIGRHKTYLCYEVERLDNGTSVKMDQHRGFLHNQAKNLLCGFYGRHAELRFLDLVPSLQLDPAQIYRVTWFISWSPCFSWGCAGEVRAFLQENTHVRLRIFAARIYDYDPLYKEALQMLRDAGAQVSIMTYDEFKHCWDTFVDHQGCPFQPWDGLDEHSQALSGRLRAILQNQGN", "test": "(§1) Inhibition of recombinant APOBEC3A (unknown origin) expressed in HEK293 cells assessed as reduction in cytosine deaminase activity using 5'-6-FAM and 3'-TAMRA quench molecule tagged cytosine-containing single-stranded DNA substrate incubated for 2 hrs by fluorescence-based assay", "assay_type": "cell-based"}, "[3]": {"biological_target": "T2, DNA dC->dU-editing enzyme APOBEC-3G (Homo sapiens, UniProt Q9HC16)", "T2 sequence (Q9HC16 whole entry)": "as the sequence (Q9HC16 whole entry C321A) above, with A321C counted along it", "test": "(§2) Inhibition of recombinant APOBEC3G (unknown origin) expressed in HEK293 cells assessed as reduction in cytosine deaminase activity using 5'-6-FAM and 3'-TAMRA quench molecule tagged cytosine-containing single-stranded DNA substrate incubated for 2 hrs by fluorescence-based assay", "assay_type": "cell-based"}, "[4]": {"test": "Inhibition of recombinant APOBEC3G 2K3A mutant (unknown origin) expressed in HEK293 cells assessed as reduction in cytosine deaminase activity using 5'-6-FAM and 3'-TAMRA quench molecule tagged cytosine-containing single-stranded DNA substrate incubated for 2 hrs by fluorescence-based assay", "assay_type": "cell-based, Homo sapiens"}, "[5]": {"biological_target": "T1, DNA dC->dU-editing enzyme APOBEC-3A", "test": "as §1, with “activity at 200 uM” for “activity”, “assay relative to control” for “assay”", "assay_type": "cell-based"}, "[6]": {"biological_target": "DNA dC->dU-editing enzyme APOBEC-3B (Homo sapiens, UniProt Q9UH17)", "sequence (Q9UH17 whole entry)": "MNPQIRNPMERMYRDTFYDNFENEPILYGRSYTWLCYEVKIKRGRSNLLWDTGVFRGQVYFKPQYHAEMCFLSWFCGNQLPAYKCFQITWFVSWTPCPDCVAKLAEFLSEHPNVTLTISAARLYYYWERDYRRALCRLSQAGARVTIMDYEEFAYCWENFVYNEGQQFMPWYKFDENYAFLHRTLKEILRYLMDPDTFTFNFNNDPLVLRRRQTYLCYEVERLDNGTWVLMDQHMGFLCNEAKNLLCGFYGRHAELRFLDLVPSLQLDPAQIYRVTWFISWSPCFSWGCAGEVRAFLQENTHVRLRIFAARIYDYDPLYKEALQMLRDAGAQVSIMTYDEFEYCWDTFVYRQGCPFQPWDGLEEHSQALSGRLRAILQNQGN", "test": "Inhibition of recombinant APOBEC3B (unknown origin) expressed in HEK293 cells assessed as reduction in cytosine deaminase activity using 5'-6-FAM and 3'-TAMRA quench molecule tagged cytosine-containing single-stranded DNA substrate incubated for 2 hrs by fluorescence-based assay", "assay_type": "cell-based"}, "[7]": {"biological_target": "T1, DNA dC->dU-editing enzyme APOBEC-3A", "details": "HEK293, 200 uM", "description": "Inhibition of recombinant APOBEC3A (unknown origin) expressed in HEK293 cells assessed as reduction in cytosine deaminase activity at 200 uM using 5'-6-FAM and 3'-TAMRA quench molecule tagged cytosine-containing single-stranded DNA substrate incubated for 2 hrs and measured on day 0 by fluorescence-based assay"}, "[8]": {"test": "Drug metabolism in DMSO at 10 mM shaken gently at 25 degC exposed to visible light (300 W) in oxygen-saturated atmosphere assessed as 2-oxo-1,2-dihydroquinoline-4-carboxylic acid formation after 38 days by HPLC analysis"}, "[9]": {"test": "Stability in DMSO assessed as drug degradation at -20 to 37 degC by HPLC analysis", "assay_type": "physicochemical"}, "[10]": {"biological_target": "T2, DNA dC->dU-editing enzyme APOBEC-3G", "test": "as §2, with “activity at 200 uM” for “activity”, “hrs and measured on day 0” for “hrs”", "assay_type": "cell-based"}, "[11]": {"test": "Stability in DMSO assessed as light dependent drug degradation by HPLC analysis", "assay_type": "physicochemical"}, "[12]": {"biological_target": "T2, DNA dC->dU-editing enzyme APOBEC-3G", "test": "as §2, with “hrs and measured on at days 3, 21, 38, and 72” for “hrs”", "assay_type": "cell-based"}, "[13]": {"test": "Stability in DMSO at 10 mM shaken gently at 25 degC exposed toN2 atmosphere assessed as compound degradation measured over 9 hrs by HPLC analysis", "assay_type": "physicochemical", "details": "10000 µM"}, "[14]": {"test": "Stability in saturated N2 atmosphere assessed as drug degradation by NMR and LC-MS/MS analysis", "assay_type": "physicochemical"}, "[15]": {"test": "Stability in DMSO assessed as drug degradation incubated for 21 days by HPLC analysis", "assay_type": "physicochemical", "details": "504 h"}, "[16]": {"test": "Toxicity in HEK293T cells assessed as cell viability at 50 uM incubated for 5 days relative to control", "assay_type": "cell-based, HEK-293T", "details": "human, read-out: Activity"}, "[17]": {"test": "Drug metabolism in DMSO at 10 mM shaken gently at 25 degC open to atmosphere condition assessed as 2-oxo-1,2-dihydroquinoline-4-carboxylic acid formation after 38 days by HPLC analysis"}, "[18]": {"test": "Toxicity in human HeLa cells assessed as cell viability at 50 uM incubated for 5 days relative to control", "assay_type": "cell-based", "details": "read-out: Activity"}}, "note": "Activity calls are given as the source filed them. No cut-off for these calls is given here.", "data": [{"smiles": "O=C(Nc1nnc(-c2ccncc2)s1)c1cc(=O)[nH]c2ccccc12", "values": [{"measurement": "IC50", "setting": "[1]", "result": "> 100", "unit": "µM"}, {"measurement": "IC50", "setting": "[2]", "result": "> 100", "unit": "µM"}, {"measurement": "IC50", "setting": "[3]", "result": 90, "unit": "µM"}, {"measurement": "IC50", "setting": "[4]", "result": "> 100", "unit": "µM"}, {"measurement": "inhibition", "setting": "[5]", "result": 50, "unit": "%"}, {"measurement": "IC50", "setting": "[6]", "result": "> 100", "unit": "µM"}]}, {"smiles": "O=C(Nc1nnc(-c2ccncc2)s1)c1ccc(O)nc1", "values": [{"measurement": "IC50", "setting": "[1]", "result": 31, "unit": "µM"}, {"measurement": "IC50", "setting": "[2]", "result": 87, "unit": "µM"}, {"measurement": "IC50", "setting": "[3]", "result": 21, "unit": "µM"}, {"measurement": "IC50", "setting": "[6]", "result": 30, "unit": "µM"}]}, {"smiles": "Cc1ccc(-c2cc(C(=O)Nc3nnc(-c4ccncc4)s3)c3ccccc3n2)o1", "values": [{"measurement": "inhibition", "setting": "[7]", "result": "inactive"}, {"measurement": "Drug metabolism", "setting": "[8]", "result": "Metabolite detected"}, {"measurement": "Stability", "setting": "[9]", "result": "Unstable"}, {"measurement": "inhibition", "setting": "[10]", "result": "inactive"}, {"measurement": "Stability", "setting": "[11]", "result": "Unstable"}, {"measurement": "inhibition", "setting": "[12]", "result": "inactive"}, {"measurement": "Stability", "setting": "[13]", "result": "Stable"}, {"measurement": "Stability", "setting": "[14]", "result": "Stable"}, {"measurement": "Stability", "setting": "[15]", "result": "Unstable"}, {"measurement": "viability at 120 h, 50 µM", "setting": "[16]", "result": "> 85", "unit": "%"}, {"measurement": "Drug metabolism", "setting": "[17]", "result": "Metabolite detected"}, {"measurement": "viability at 120 h, 50 µM", "setting": "[18]", "result": "> 85", "unit": "%"}]}, {"smiles": "O=C(Nc1nnc(-c2ccncc2)s1)c1ccnc(O)c1", "values": [{"measurement": "IC50", "setting": "[2]", "result": "> 100", "unit": "µM"}, {"measurement": "IC50", "setting": "[3]", "result": 60, "unit": "µM"}, {"measurement": "IC50", "setting": "[4]", "result": "> 100", "unit": "µM"}]}, {"smiles": "O=C(O)c1cccc2c1C(=O)N(c1ccccc1)C2", "values": [{"measurement": "IC50", "setting": "[2]", "result": 111, "unit": "µM"}]}, {"smiles": "O=C(Nc1nnc(-c2ccncc2)s1)c1cc(Cl)nc2ccccc12", "values": [{"measurement": "IC50", "setting": "[1]", "result": "> 100", "unit": "µM"}, {"measurement": "IC50", "setting": "[2]", "result": "> 100", "unit": "µM"}, {"measurement": "IC50", "setting": "[3]", "result": 22, "unit": "µM"}, {"measurement": "IC50", "setting": "[4]", "result": "> 100", "unit": "µM"}, {"measurement": "IC50", "setting": "[6]", "result": "> 100", "unit": "µM"}]}, {"smiles": "O=C(Nc1nnc(-c2ccncc2)s1)c1cc(=O)[nH]c2ccc([N+](=O)[O-])cc12", "values": [{"measurement": "IC50", "setting": "[1]", "result": 23, "unit": "µM"}, {"measurement": "IC50", "setting": "[2]", "result": "> 100", "unit": "µM"}, {"measurement": "IC50", "setting": "[3]", "result": 12, "unit": "µM"}, {"measurement": "IC50", "setting": "[4]", "result": 74, "unit": "µM"}, {"measurement": "IC50", "setting": "[6]", "result": 31, "unit": "µM"}]}, {"smiles": "O=C(Nc1nnc(-c2ccncc2)s1)c1cc(Br)nc2ccccc12", "values": [{"measurement": "IC50", "setting": "[1]", "result": 52, "unit": "µM"}, {"measurement": "IC50", "setting": "[2]", "result": 75, "unit": "µM"}, {"measurement": "IC50", "setting": "[3]", "result": 32, "unit": "µM"}, {"measurement": "IC50", "setting": "[6]", "result": 65, "unit": "µM"}]}, {"smiles": "Nc1ccc2[nH]c(=O)cc(C(=O)Nc3nnc(-c4ccncc4)s3)c2c1", "values": [{"measurement": "IC50", "setting": "[1]", "result": 30, "unit": "µM"}, {"measurement": "IC50", "setting": "[2]", "result": "> 100", "unit": "µM"}, {"measurement": "IC50", "setting": "[3]", "result": 18, "unit": "µM"}, {"measurement": "IC50", "setting": "[4]", "result": 55, "unit": "µM"}, {"measurement": "IC50", "setting": "[6]", "result": 31, "unit": "µM"}]}, {"smiles": "N#Cc1ncnn1C(=O)c1cc(=O)[nH]c2ccccc12", "values": [{"measurement": "IC50", "setting": "[1]", "result": "> 100", "unit": "µM"}, {"measurement": "IC50", "setting": "[2]", "result": "> 100", "unit": "µM"}, {"measurement": "IC50", "setting": "[3]", "result": 15, "unit": "µM"}, {"measurement": "IC50", "setting": "[4]", "result": "> 100", "unit": "µM"}, {"measurement": "IC50", "setting": "[6]", "result": "> 100", "unit": "µM"}]}, {"smiles": "COc1ccc2[nH]c(=O)cc(C(=O)Nc3nnc(-c4ccncc4)s3)c2c1", "values": [{"measurement": "IC50", "setting": "[1]", "result": 20, "unit": "µM"}, {"measurement": "IC50", "setting": "[2]", "result": "> 100", "unit": "µM"}, {"measurement": "IC50", "setting": "[3]", "result": 17, "unit": "µM"}, {"measurement": "IC50", "setting": "[4]", "result": 24, "unit": "µM"}, {"measurement": "IC50", "setting": "[6]", "result": 37, "unit": "µM"}]}]}
